Assay results as given in the NIST ThermoML archive (doi:10.1021/acs.jced.8b00600).
Numbers after ± are expanded uncertainties.

Experiments:
[1] = refractive index (Na D-line) (dimensionless); xn = mol fraction of the nth substance listed; settings: 313.15 K; 101.3 kPa; Liquid; Standard Abbe refractometry; x2 = 0.333
[2] = xn = mol fraction of the nth substance listed; settings: 313.15 K; 101.3 kPa; Liquid; Vibrating tube method; x2 = 0.333

OCCCCCCO [1,6-hexanediol] + CCC[N+](CCC)(CCC)CCC.[Br-]
refractive index [1]: 1.47923 ± 0.002
mass density [2]: 1042.25 ± 2 kg/m3
